Assay results reported in ChEMBL document CHEMBL4359880, “PROTACs and Targeted Protein Degradation for Treating ALK-Mediated Cancers” (2019).

Assays:
[1] = target: T1, von Hippel-Lindau disease tumor suppressor/ALK tyrosine kinase receptor (Homo sapiens) (UniProt Q9UM73+P40337); test: Protac activity at VHL/ALK in human NCI-H3122 cells assessed as increase in degradation of ALK at 500 nM by Western blot analysis relative to control; assay type: cell-based
SU-DHL-1 [2] = test: Cytotoxicity against human SUDHL1 cells assessed as cell growth at 12 nM incubated for 2.5 days by CCk8 assay relative to control; assay type: functional; settings: SU-DHL-1, 60 h
SU-DHL-1 [3] = test: Cytotoxicity against human SUDHL1 cells assessed as cell growth at 100 nM incubated for 2.5 days by CCk8 assay relative to control; assay type: functional; settings: SU-DHL-1, 60 h
[4] = target: T1, von Hippel-Lindau disease tumor suppressor/ALK tyrosine kinase receptor (Homo sapiens); test: Protac activity at VHL/ALK in human SUDHL1 cells assessed as increase in degradation of ALK at 30 nM by Western blot analysis relative to control; assay type: cell-based
SU-DHL-1 [5] = test: Cytotoxicity against human SUDHL1 cells assessed as cell growth at 40 nM incubated for 2.5 days by CCk8 assay relative to control; assay type: functional; settings: SU-DHL-1, 60 h

T1 sequence (P40337 whole entry partner): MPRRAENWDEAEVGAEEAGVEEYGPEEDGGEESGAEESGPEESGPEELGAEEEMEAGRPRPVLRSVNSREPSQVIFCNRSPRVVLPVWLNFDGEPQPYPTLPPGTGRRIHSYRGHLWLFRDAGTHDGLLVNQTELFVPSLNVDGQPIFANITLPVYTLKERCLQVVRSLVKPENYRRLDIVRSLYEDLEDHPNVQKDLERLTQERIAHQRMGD
T1 sequence (Q9UM73 19-1620 limits assumed): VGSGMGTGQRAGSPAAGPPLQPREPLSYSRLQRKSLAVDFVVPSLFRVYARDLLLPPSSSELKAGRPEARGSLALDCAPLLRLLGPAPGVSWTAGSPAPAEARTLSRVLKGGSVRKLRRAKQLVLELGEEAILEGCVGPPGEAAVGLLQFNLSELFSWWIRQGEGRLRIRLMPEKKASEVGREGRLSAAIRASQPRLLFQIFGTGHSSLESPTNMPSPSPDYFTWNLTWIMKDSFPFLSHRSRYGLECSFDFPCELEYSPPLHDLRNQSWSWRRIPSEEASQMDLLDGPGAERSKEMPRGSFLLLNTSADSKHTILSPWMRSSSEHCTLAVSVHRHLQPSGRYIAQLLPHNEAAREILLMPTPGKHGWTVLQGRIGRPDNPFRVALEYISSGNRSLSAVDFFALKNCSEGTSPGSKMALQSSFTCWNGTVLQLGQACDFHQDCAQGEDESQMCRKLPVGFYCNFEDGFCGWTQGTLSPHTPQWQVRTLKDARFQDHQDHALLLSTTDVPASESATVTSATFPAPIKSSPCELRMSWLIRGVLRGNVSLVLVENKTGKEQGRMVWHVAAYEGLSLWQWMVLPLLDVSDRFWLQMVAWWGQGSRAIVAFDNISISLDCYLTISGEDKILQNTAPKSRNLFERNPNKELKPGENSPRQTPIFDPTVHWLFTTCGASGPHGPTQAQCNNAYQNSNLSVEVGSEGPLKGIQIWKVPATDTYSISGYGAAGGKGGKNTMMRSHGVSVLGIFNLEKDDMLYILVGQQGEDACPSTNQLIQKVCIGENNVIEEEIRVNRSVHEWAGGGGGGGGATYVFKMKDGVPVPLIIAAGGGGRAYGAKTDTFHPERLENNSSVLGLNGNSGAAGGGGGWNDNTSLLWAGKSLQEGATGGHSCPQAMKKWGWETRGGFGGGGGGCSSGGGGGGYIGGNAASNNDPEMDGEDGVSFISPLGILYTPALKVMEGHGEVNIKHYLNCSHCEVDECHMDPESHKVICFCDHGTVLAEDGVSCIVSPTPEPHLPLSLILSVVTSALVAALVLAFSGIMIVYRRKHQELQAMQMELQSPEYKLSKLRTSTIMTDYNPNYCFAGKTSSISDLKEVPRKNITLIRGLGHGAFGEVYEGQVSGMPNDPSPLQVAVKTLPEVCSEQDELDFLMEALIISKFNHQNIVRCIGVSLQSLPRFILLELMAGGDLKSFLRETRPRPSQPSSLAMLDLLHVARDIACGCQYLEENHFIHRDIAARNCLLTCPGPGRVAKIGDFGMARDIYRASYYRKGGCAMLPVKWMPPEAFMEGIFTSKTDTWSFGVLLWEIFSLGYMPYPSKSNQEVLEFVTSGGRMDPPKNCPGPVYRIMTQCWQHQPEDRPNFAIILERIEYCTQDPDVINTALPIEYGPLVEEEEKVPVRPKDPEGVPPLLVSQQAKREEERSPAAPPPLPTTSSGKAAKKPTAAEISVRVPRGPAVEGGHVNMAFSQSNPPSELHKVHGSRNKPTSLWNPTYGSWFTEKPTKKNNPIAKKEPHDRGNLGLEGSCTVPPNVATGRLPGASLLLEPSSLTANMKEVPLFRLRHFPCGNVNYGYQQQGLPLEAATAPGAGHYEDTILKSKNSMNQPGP

| Structure (SMILES) | Activity [1] [%] | Activity [4] [%] | growth, % of control at 0.012 µM (SU-DHL-1 [2]) [%] | growth, % of control at 0.1 µM (SU-DHL-1 [3]) [%] | growth, % of control at 0.04 µM (SU-DHL-1 [5]) [%] |
| --- | --- | --- | --- | --- | --- |
| Cc1cc(Nc2ncc(Cl)c(Nc3ccccc3S(=O)(=O)C(C)C)n2)c(OC(C)C)cc1C1CCN(CC(=O)NCCOCCOCCOCCOCCOCCNc2cccc3c2C(=O)N(C2CCC(=O)NC2=O)C3=O)CC1 (centres undefined) | – | > 80 | 94.5 | 3.9 | 47.5 |
| Cc1cc(Nc2ncc(Cl)c(Nc3ccccc3S(=O)(=O)C(C)C)n2)c(OC(C)C)cc1C1CCN(CC(=O)NCCOCCOCCOCCOCCNc2cccc3c2C(=O)N(C2CCC(=O)NC2=O)C3=O)CC1 (centres undefined) | – | > 80 | 97.7 | 3.5 | 67 |
| Cc1cc(Nc2ncc(Cl)c(Nc3ccccc3S(=O)(=O)C(C)C)n2)c(OC(C)C)cc1C1CCN(CC(=O)NCCNc2cccc3c2C(=O)N(C2CCC(=O)NC2=O)C3=O)CC1 (centres undefined) | – | > 80 | 80.6 | 2.1 | 30.5 |

Second part, led by results:

| Activity [1] [%] | Activity [4] [%] | Structure (SMILES) | growth, % of control at 0.012 µM (SU-DHL-1 [2]) [%] | growth, % of control at 0.1 µM (SU-DHL-1 [3]) [%] | growth, % of control at 0.04 µM (SU-DHL-1 [5]) [%] |
| --- | --- | --- | --- | --- | --- |
| > 80 | – | Cc1cc(Nc2ncc(Cl)c(Nc3ccccc3S(=O)(=O)C(C)C)n2)c(OC(C)C)cc1C1CCN(C(=O)CCCC(=O)N[C@H](C(=O)N2C[C@H](O)C[C@H]2C(=O)N[C@@H](C)c2ccc(-c3scnc3C)cc2)C(C)(C)C)CC1 | – | – | – |
| > 80 | – | Cc1cc(Nc2ncc(Cl)c(Nc3ccccc3S(=O)(=O)C(C)C)n2)c(OC(C)C)cc1C1CCN(C(=O)COCCOCC(=O)N[C@H](C(=O)N2C[C@H](O)C[C@H]2C(=O)N[C@@H](C)c2ccc(-c3scnc3C)cc2)C(C)(C)C)CC1 | – | – | – |
